Legend:
Test in all cases: KINOMEscan competition binding
Details in all cases: compound 1.0 µM
[1] = tested on: ABL1 (human), P00519 [F317I]
BLK (human) = BLK (human) (UniProt P51451)
CDC2L2 (human) = CDC2L2 (human) (UniProt Q9UQ88)
CDK14 (human) = CDK14 (human) (UniProt O94921)
CDK18 (human) = CDK18 (human) (UniProt Q07002)
CDK7 (human) = CDK7 (human) (UniProt P50613)
CDK9 (human) = CDK9 (human) (UniProt P50750)
CLK3 (human) = CLK3 (human) (UniProt P49761)
CSF1R (human) = CSF1R (human) (UniProt P07333)
CSNK1G2 (human) = CSNK1G2 (human) (UniProt P78368)
EPHB2 (human) = EPHB2 (human) (UniProt P29323)
FYN (human) = FYN (human) (UniProt P06241)
GRK7 (human) = GRK7 (human) (UniProt Q8WTQ7)
IGF1R (human) = IGF1R (human) (UniProt P08069)
INSR (human) = INSR (human) (UniProt P06213)
[2] = target: JAK1 JH1 catalytic (human) (UniProt P23458)
[3] = tested on: KIT (human), P10721 [V559D/T670I]
[4] = tested on: KIT (human), P10721 [V559D/V654A]
MAP3K5 (human) = MAP3K5 (human) (UniProt Q99683)
MAP4K1 (human) = MAP4K1 (human) (UniProt Q92918)
MELK (human) = MELK (human) (UniProt Q14680)
MELK (human), sequence (Q14680 whole entry, looked up): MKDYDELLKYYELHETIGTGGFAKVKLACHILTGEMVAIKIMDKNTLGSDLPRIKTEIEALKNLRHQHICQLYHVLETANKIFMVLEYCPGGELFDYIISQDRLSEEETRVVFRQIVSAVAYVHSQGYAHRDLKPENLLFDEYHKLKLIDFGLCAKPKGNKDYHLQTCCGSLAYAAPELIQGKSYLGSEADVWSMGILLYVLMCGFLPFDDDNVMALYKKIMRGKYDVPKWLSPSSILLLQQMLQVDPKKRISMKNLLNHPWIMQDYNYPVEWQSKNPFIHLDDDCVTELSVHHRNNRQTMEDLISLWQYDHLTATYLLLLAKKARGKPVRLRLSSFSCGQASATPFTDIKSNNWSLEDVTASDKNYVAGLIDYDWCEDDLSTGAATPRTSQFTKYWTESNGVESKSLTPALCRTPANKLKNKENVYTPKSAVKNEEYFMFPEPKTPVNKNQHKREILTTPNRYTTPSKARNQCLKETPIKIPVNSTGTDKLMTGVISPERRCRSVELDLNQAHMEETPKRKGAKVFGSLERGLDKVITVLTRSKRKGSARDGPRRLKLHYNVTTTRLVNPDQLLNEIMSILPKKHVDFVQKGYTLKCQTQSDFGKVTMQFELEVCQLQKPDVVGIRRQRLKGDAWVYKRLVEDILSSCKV

MKNK1 (human) = MKNK1 (human) (UniProt Q9BUB5)
MYO3A (human) = MYO3A (human) (UniProt Q8NEV4)
MYO3A (human), sequence (Q8NEV4 whole entry, looked up): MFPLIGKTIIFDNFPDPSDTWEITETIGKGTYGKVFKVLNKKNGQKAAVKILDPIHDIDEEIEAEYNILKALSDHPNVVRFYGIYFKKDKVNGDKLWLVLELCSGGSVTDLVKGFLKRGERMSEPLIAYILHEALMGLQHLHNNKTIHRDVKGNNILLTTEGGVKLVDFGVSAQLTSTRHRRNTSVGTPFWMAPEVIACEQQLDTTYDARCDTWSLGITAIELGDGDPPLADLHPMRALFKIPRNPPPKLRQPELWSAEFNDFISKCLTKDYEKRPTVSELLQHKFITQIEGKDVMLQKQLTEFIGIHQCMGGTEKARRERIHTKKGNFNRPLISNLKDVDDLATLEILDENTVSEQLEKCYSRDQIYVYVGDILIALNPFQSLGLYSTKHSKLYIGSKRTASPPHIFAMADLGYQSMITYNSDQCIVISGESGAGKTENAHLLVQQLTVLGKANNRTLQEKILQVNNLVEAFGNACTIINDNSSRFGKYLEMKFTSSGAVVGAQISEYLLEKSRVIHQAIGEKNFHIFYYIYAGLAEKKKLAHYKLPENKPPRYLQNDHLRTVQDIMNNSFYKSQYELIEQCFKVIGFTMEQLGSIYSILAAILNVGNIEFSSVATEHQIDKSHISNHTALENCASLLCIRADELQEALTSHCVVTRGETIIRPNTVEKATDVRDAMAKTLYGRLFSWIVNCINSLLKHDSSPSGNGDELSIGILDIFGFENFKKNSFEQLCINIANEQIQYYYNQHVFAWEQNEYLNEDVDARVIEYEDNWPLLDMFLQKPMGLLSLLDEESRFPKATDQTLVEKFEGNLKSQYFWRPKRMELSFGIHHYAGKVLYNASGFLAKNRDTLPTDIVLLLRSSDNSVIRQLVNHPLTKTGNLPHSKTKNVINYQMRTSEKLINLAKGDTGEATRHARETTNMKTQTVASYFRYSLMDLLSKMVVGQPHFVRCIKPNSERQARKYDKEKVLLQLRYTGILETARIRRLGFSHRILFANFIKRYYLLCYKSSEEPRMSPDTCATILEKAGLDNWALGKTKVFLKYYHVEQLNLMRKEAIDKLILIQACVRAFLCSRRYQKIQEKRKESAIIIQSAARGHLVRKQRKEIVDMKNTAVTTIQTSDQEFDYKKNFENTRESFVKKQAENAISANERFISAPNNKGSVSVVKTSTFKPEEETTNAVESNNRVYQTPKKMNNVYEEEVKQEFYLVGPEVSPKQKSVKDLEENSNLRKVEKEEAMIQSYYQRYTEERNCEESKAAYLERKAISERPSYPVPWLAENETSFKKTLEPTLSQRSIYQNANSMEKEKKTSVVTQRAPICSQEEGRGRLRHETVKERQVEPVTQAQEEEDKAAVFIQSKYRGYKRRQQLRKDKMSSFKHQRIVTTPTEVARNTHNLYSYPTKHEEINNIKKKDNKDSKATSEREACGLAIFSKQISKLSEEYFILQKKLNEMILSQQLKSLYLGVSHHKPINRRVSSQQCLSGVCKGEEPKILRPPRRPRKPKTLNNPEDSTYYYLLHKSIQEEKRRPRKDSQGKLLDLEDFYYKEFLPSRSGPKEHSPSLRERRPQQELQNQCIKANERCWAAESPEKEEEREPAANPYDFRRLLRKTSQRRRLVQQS

NEK1 (human) = NEK1 (human) (UniProt Q96PY6)
NEK1 (human), sequence (Q96PY6 whole entry, looked up): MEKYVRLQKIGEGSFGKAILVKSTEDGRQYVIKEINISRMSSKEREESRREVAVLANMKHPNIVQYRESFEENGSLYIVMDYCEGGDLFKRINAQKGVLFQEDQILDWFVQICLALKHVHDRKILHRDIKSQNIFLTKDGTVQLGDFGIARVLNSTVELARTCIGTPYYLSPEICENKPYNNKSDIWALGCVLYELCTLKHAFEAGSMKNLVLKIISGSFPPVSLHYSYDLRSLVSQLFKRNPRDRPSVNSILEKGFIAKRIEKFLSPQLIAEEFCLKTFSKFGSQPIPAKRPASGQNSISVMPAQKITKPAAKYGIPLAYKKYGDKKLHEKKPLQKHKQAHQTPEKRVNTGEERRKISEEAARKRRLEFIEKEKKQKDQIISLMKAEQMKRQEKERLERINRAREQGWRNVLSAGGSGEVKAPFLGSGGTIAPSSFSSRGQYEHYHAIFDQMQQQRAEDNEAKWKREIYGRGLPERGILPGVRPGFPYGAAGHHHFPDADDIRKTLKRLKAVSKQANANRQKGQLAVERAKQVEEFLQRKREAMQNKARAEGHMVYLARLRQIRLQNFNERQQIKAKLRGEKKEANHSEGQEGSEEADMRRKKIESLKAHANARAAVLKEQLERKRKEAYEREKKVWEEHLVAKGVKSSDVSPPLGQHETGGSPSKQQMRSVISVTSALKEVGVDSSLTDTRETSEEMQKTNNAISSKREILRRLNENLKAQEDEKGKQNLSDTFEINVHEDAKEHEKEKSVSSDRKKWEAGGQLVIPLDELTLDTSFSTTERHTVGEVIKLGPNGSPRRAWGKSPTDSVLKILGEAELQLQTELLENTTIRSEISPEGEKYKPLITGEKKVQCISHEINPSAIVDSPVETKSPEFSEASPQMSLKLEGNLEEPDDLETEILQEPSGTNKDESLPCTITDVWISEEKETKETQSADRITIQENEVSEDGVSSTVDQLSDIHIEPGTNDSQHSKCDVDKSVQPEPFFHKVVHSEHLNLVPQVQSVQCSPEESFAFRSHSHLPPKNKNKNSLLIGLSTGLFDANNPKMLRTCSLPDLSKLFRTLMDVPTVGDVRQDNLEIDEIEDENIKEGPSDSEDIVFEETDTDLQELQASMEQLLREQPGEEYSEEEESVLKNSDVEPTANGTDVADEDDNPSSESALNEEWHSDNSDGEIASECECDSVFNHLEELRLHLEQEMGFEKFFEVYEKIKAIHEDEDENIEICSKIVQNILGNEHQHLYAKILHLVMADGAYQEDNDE

NLK (human) = NLK (human) (UniProt Q9UBE8)
PDPK1 (human) = PDPK1 (human) (UniProt O15530)
PIM1 (human) = PIM1 (human) (UniProt P11309)
PIM1 (human), sequence (P11309 whole entry, looked up): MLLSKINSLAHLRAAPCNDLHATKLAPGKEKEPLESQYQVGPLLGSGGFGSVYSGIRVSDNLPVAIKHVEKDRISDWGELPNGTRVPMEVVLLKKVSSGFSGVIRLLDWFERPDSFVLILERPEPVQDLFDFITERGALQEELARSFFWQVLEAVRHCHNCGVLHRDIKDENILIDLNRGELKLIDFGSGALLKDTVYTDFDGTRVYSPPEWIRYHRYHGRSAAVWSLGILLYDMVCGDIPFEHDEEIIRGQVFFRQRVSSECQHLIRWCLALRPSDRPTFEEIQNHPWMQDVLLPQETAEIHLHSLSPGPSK

PKN2 (human) = PKN2 (human) (UniProt Q16513)
PLK1 (human) = PLK1 (human) (UniProt P53350)
PRKAA1 (human) = PRKAA1 (human) (UniProt Q13131)
PRKCQ (human) = PRKCQ (human) (UniProt Q04759)
PRKX (human) = PRKX (human) (UniProt P51817)
RAF1 (human) = RAF1 (human) (UniProt P04049)
[5] = tested on: RET (human), P07949 [V804M]
ROCK1 (human) = ROCK1 (human) (UniProt Q13464)
ROS1 (human) = ROS1 (human) (UniProt P08922)
SIK2 (human) = SIK2 (human) (UniProt Q9H0K1)
SIK3 (human) = SIK3 (human) (UniProt Q9Y2K2)
STK39 (human) = STK39 (human) (UniProt Q9UEW8)
ULK3 (human) = ULK3 (human) (UniProt Q6PHR2)

BLK (human), sequence (P51451 whole entry, looked up): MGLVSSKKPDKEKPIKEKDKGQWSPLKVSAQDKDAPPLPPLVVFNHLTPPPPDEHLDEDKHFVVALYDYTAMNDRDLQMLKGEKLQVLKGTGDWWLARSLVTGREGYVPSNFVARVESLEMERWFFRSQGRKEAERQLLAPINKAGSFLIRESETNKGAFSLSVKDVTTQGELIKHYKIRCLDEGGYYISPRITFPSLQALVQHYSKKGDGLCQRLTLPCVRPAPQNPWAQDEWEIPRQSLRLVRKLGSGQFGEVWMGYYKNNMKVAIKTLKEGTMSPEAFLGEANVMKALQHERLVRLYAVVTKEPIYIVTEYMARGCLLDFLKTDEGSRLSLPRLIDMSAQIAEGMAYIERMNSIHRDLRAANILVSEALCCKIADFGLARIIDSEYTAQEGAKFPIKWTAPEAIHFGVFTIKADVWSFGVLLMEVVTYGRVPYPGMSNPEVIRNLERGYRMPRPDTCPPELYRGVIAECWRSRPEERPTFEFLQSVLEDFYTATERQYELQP
CLK3 (human), sequence (P49761 whole entry, looked up): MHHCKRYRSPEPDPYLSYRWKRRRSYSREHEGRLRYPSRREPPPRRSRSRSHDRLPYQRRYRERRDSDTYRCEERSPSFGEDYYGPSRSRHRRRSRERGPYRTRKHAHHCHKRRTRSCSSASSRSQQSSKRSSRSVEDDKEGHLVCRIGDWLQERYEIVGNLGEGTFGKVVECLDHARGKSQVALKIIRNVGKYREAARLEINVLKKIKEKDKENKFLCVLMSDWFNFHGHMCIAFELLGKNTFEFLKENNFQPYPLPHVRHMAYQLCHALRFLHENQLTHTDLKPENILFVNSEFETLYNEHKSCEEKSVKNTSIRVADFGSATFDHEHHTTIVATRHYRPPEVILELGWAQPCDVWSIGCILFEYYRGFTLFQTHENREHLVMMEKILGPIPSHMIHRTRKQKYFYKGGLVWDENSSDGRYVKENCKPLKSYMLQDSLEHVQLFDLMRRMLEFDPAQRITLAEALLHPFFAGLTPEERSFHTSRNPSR

`Nc1cc(C(F)(F)F)c(-c2cc(N3CCOCC3)nc(N3CCOCC3)n2)cn1` was tested. Which inhibition of binding [1] did it give?
Its inhibition of binding is 41%.

What about the inhibition of binding (BLK (human)) of the same compound?
Its inhibition of binding is 0%.

What about the inhibition of binding (CDC2L2 (human)) of the same compound?
Its inhibition of binding is 19%.

What about the inhibition of binding (CDK14 (human)) of the same compound?
Its inhibition of binding is 27%.

What about the inhibition of binding (CDK18 (human)) of the same compound?
Its inhibition of binding is 34%.

What about the inhibition of binding (CDK7 (human)) of the same compound?
Its inhibition of binding is 0%.

And the inhibition of binding (CDK9 (human))?
Its inhibition of binding is 12%.

And the inhibition of binding (CLK3 (human))?
The inhibition of binding was 29%.

What about the inhibition of binding (CSF1R (human)) of the same compound?
Its inhibition of binding is 0%.

And the inhibition of binding (CSNK1G2 (human))?
The inhibition of binding was 0%.

What about the inhibition of binding (EPHB2 (human)) of the same compound?
Its inhibition of binding is 0%.

What about the inhibition of binding (FYN (human)) of the same compound?
The inhibition of binding was 0%.

And the inhibition of binding (GRK7 (human))?
The inhibition of binding was 3%.

And the inhibition of binding (IGF1R (human))?
The inhibition of binding was 0%.

What about the inhibition of binding (INSR (human)) of the same compound?
The inhibition of binding was 30%.

What about the inhibition of binding [2] of the same compound?
Its inhibition of binding is 38%.

What about the inhibition of binding [3] of the same compound?
Its inhibition of binding is 0%.

What about the inhibition of binding [4] of the same compound?
The inhibition of binding was 0%.

And the inhibition of binding (MAP3K5 (human))?
The inhibition of binding was 1%.

What about the inhibition of binding (MAP4K1 (human)) of the same compound?
The inhibition of binding was 0%.

And the inhibition of binding (MELK (human))?
The inhibition of binding was 0%.

What about the inhibition of binding (MKNK1 (human)) of the same compound?
The inhibition of binding was 0%.

What about the inhibition of binding (MYO3A (human)) of the same compound?
Its inhibition of binding is 7%.

What about the inhibition of binding (NEK1 (human)) of the same compound?
The inhibition of binding was 15%.

What about the inhibition of binding (NLK (human)) of the same compound?
The inhibition of binding was 0%.

What about the inhibition of binding (PDPK1 (human)) of the same compound?
Its inhibition of binding is 0%.

What about the inhibition of binding (PIM1 (human)) of the same compound?
The inhibition of binding was 2%.

What about the inhibition of binding (PKN2 (human)) of the same compound?
The inhibition of binding was 0%.

And the inhibition of binding (PLK1 (human))?
Its inhibition of binding is 30%.

And the inhibition of binding (PRKAA1 (human))?
The inhibition of binding was 3%.

And the inhibition of binding (PRKCQ (human))?
Its inhibition of binding is 0%.

What about the inhibition of binding (PRKX (human)) of the same compound?
Its inhibition of binding is 0%.

And the inhibition of binding (RAF1 (human))?
Its inhibition of binding is 7%.

And the inhibition of binding [5]?
Its inhibition of binding is 14%.

And the inhibition of binding (ROCK1 (human))?
The inhibition of binding was 0%.

What about the inhibition of binding (ROS1 (human)) of the same compound?
Its inhibition of binding is 0%.

What about the inhibition of binding (SIK2 (human)) of the same compound?
Its inhibition of binding is 0%.

What about the inhibition of binding (SIK3 (human)) of the same compound?
Its inhibition of binding is 0%.

And the inhibition of binding (STK39 (human))?
Its inhibition of binding is 2%.

What about the inhibition of binding (ULK3 (human)) of the same compound?
The inhibition of binding was 17%.
